Laboratory results taken from patent US20240285614A1, “PHENOL RIBONUCLEOTIDE REDUCTASE (RNR) INHIBITORS AND USES THEREOF” (Boundless Bio, Inc., priority 2023, published 2024).

Assays:
RNR (RNR1:RNR2 1:1) = target: T1, RNR (RNR1:RNR2 1:1) (Homo sapiens, UniProt P23921+P31350); test: RNR enzyme activity, rapid-fire mass spectrometry (RF/MS) assay; type: biochemical; conditions: RNR 50 nM, 1:1 (RNR1:RNR2); CDP 5 μM; ATP 1 mM; 37° C., 45 min; compounds screened up to 50 μM
T1 sequence (P23921 1-792): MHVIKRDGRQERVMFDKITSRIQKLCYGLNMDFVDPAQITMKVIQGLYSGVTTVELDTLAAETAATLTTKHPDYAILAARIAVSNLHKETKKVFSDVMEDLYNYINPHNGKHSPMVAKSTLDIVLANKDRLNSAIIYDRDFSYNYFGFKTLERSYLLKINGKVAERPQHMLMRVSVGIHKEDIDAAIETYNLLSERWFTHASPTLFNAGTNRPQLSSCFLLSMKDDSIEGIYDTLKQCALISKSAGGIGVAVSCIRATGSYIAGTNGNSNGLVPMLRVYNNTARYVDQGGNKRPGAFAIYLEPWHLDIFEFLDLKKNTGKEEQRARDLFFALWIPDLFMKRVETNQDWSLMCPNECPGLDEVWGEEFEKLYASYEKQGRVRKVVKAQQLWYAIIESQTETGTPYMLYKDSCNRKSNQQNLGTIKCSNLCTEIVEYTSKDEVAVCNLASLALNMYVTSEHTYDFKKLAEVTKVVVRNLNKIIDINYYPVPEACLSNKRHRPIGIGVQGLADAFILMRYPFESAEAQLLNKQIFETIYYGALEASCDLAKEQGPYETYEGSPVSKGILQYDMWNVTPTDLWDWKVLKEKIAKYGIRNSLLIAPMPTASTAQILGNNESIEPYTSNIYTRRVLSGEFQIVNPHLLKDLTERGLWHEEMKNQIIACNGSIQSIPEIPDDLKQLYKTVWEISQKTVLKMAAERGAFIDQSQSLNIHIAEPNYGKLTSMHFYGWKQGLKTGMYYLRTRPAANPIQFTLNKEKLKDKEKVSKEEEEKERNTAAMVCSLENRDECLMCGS
T1 sequence (P31350 1-389): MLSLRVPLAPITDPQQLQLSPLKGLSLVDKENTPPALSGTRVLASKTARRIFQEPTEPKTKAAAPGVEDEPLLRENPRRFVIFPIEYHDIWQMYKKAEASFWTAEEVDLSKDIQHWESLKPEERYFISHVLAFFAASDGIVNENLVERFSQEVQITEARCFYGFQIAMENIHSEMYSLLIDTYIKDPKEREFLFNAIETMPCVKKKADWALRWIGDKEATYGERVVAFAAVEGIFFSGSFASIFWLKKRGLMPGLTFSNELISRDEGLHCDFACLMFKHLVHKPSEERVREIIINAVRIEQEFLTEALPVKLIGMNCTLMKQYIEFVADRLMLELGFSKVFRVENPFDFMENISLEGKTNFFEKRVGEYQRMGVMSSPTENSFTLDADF
Description: A rapid-fire mass spectrometry (RF/MS) assay was used to assess RNR enzyme activity using a 384 well plate and a robotic platform.
The plate layout included two validated reference compounds (Triapine (3-AP) and Hydroxyurea (HU)): • A dose response in duplicate, top concentration: 5 μM (3-AP) and 250 μM (HU), semi-log • dilutions. • Spike wells in triplicate randomly spotted at four concentrations: • 250 μM, 100 μM, 30 μM and 2 μM for HU • 5 μM, 2 μM, 0.6 μM and 0.04 μM for 3-AP
First, the multidrop pipes were saturated for 30 minutes with enzymatic solution. Then 30 μL of Stop solution was distributed in column 24. Next, 15 μL of enzyme was distributed in column 1 to 24. Next, a pre-incubation step of 15 minutes at room temperature occurred, followed by distribution of 15 μL of substrate solution (column 1 to 24). Next, the plate was incubated for 45 minutes at 37° C. 30 μL of Stop solution was distributed to columns 1 to 23.
The final parameters for the enzyme reactions were: • Incubation: 37° C., 45 min • [CDP]: 5 μM: [ATP]: 1 mM; [NADPH]: No • [RNR]final: 50 nM with 1:1 (RNR1:RNR2) ratio • Final volume: 30 μL • Stop solution: 6% HCOOH containing 2 μM of 15

[1] = tested on: pCHK1 (S345) in Colo320 DM cells; test: Alphalisa assay, detection of pCHK1 (S345) in Colo320 DM cells; type: cell-based; conditions: Homo sapiens, COLO 320DM, compound incubation overnight (approximately 16 hours)
Description: Colo320 DM cells (ATCC #CCL-220, derived from human colorectal adenocarcinoma, Dukes' type C) were seeded on a 96-well, cell culture treated assay plate at a density of 50,000 cells/well in 200 μL of RPMI-1640 media supplemented with 10% Fetal Bovine Serum and incubated at 37° C. overnight. The following day, test compound dilutions were added directly to the plated cells by a Tecan digital dispenser to a final DMSO concentration of <0.5%, and incubated at 37° C. overnight (approximately 16 hours). The following day all cull culture media was removed from the cells. 75 μL of 1× AlphaLisa lysis buffer was added to each well and plates were agitated on a shaker for 30 minutes at room temperature. The lysis of cells and detection of pCHK1 (S345) were performed with regents contained within the AlphaLisa Sure Fire assay kit (Perkin Elmer #ALSU-PCHK1-A) according to the manufacturer's instructions. 10 μL of each lysate was then transferred to a white, 384-well assay plate (Perkin Elmer #6008280), 5 μL of Acceptor mix was then added to each well of lysate in the white, 384-well assay plate and incubated in the dark at room temperature for 60 minutes. 5 μL of Donor mix was then added to each well of the white, 384-well assay plate in subdued light and incubated at room temperature for 60 minutes. Plates were read on an Alpha Technology-compatible plate reader using standard AlphaLisa settings.

## O=S(=O)(c1ccc2cc[nH]c2c1)N1CC2CN(c3ccc(O)cc3)CCC21 (centres unmarked) [compound 51, 4-(7-((1H-indol-6-yl)sulfonyl)-3,7-diazabicyclo[4.2.0]octan-3-yl)phenol]
RNR (RNR1:RNR2 1:1)
  IC50: 100 to 500 nM
[1]
  IC50: 5000 to 10000 nM
